Results from patent publication US20030073862A1, “Compounds” (priority 2001, published 2003).

Key:
human PPARγ LBD = human PPARγ LBD (Homo sapiens, UniProt P37231); settings: FIG. 1
human PPARγ LBD, sequence (P37231 238-503 limits assumed): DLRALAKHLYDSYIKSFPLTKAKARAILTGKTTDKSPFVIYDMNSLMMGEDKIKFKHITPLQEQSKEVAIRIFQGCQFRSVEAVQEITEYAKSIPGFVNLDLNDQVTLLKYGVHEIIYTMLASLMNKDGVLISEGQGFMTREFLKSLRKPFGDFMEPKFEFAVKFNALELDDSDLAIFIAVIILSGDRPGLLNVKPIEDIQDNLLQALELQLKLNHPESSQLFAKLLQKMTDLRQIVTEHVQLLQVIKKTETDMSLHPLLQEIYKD

melting point: 165 to 168 °C
Compound: O=C(Nc1ccc(OCc2cccs2)cc1C(=O)[O-])c1ccc(Cl)cc1Cl.[Li+] [Example 1, Lithium 2-[(2,4-dichlorobenzoyl)amino]-5-(2-thienylmethoxy)benzoate]
location of the compound in the structure of the human PPARγ LBD complex (human PPARγ LBD): located in the ligand binding pocket of human PPARγ
